Measurements taken from paper PMC5578373, “Inhibitory Kappa B Kinase α (IKKα) Inhibitors That Recapitulate Their Selectivity in Cells against Isoform-Related Biomarkers” (Journal of Medicinal Chemistry, 2017).
Like-named read-outs stand apart in the source and are kept apart here.

Tests used:
IKKα = molecular target: T1, IKKα (Homo sapiens, UniProt O15111); assay: DELFIA kinase assay, IKKα; assay type: biochemical; conditions: for IKKα inhibitory activity: SAR discussion; for Ki: apparent Ki (Cheng–Prusoff), 40 μM ATP, three independent experiments, read-out: IKKα (Ki ± SEM μM)
T1 construct: purchased Millipore, Dundee, UK
T1 sequence (O15111 1-745): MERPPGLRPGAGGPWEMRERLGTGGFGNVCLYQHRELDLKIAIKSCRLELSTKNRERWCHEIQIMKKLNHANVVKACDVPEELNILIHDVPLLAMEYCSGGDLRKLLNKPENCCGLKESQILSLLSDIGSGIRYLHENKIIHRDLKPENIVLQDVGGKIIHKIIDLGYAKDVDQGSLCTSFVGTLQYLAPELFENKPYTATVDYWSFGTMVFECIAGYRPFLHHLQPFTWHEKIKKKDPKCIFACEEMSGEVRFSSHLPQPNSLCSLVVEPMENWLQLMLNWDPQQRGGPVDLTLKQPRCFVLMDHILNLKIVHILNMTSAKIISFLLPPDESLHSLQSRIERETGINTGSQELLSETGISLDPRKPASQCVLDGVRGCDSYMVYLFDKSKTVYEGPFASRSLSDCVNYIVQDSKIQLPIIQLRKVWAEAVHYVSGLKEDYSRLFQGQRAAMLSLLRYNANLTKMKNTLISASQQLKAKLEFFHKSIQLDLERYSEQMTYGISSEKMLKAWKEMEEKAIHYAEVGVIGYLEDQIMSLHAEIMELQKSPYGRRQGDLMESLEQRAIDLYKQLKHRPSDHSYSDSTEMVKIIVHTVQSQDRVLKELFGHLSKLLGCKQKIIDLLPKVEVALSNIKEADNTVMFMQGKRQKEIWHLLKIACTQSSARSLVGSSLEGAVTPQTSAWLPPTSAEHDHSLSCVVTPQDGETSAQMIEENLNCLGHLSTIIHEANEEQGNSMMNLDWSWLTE

IKKβ = molecular target: T2, IKKβ (Homo sapiens, UniProt O14920); assay: DELFIA kinase assay, IKKβ; assay type: biochemical
T2 construct: purchased Millipore, Dundee, UK
T2 sequence (O14920 1-756): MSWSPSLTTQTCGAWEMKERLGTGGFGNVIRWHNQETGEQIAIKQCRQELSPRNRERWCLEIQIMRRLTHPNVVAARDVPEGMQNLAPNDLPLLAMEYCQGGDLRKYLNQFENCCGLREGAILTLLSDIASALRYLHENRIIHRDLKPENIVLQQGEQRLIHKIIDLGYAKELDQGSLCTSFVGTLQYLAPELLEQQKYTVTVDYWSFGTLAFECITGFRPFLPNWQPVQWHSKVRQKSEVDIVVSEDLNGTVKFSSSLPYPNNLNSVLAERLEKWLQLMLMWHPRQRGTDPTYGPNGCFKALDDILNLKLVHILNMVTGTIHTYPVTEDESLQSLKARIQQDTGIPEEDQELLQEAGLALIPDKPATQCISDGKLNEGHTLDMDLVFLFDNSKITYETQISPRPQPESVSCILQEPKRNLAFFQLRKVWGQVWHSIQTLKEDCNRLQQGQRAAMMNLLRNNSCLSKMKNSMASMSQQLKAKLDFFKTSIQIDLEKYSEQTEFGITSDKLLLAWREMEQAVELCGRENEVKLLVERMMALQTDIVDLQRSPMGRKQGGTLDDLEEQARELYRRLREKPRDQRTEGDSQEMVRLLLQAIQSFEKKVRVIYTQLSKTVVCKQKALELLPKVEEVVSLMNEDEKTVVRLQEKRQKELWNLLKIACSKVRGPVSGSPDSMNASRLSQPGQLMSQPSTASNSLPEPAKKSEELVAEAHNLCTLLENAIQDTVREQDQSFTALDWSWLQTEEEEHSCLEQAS
Source text: To identify hits that could be developed to exploit the differences between the two isoforms, we screened our in-house compound library compiled of fragments designed to target the common hinge-binding motif found in protein kinases. Using a DELFIA kinase assay kit with minor modifications[29] to measure IKKα and IKKβ inhibitory activity, we identified 2-amino-4-chloro-5-cyanopyrrolo[2,3-d]pyrimidine 4 as our primary hit (Table 1). On the basis of the assumption that the 2-aminopyrrolo[2,3-d]pyrimidine core of compound 4 was binding at the hinge of IKKα, we varied substitution at the 4-position widely. Differences in bulk and polar functionality were incorporated to exploit the greater flexibility in the IKKα ATP binding site and the position of the Asn28 side chain at the back of the pocket.
IKKα and IKKβ inhibitory activity was determined using a dissociation enhanced ligand fluorescent immunoassay (DELFIA) based on the protocol of HTScan IKKβ kinase assay (Cell Signaling Technology, USA).
Recombinant IKKα or IKKβ, 37 nM (Millipore, Dundee, UK), was incubated with IκB-α (Ser32) (New England Biolabs, Hitchin, UK), biotinylated peptide substrate (0.375 μM), and 40 μM ATP in assay buffer (40 mM Tris-HCl (pH 7.5), 20 mM MgCl2, EDTA 1 mM, DTT 2 mM, and BSA 0.01 mg/mL) in a V-well 96-well plate in the presence and absence of test compound. The assay plate was incubated for 60 min at 30 °C, after which the kinase reaction was quenched by the addition of 50 mM EDTA, pH 8. The resulting mixture was transferred to a streptavidin-coated 96-well plate (PerkinElmer, Beaconsfield, UK) and incubated for 1 h at 30 °C to immobilize the substrate peptide. After three washes with wash buffer (0.01 M phosphate buffered saline (PBS), 0.05% Tween-20, pH 7.4), a primary antibody against the phosphorylated substrate (phospho-IκB-α) (Ser32/36) (5A5) mouse mAb (New England Biolabs, Hitchin, UK) (1:1000 dilution with 1% bovine serum albumin (BSA) in wash buffer) was added and incubated at 37 °C for 2 h.
After a further three washes, a secondary europiated antibody (Eu–N1 labeled antimouse IgG, (PerkinElmer, Beaconsfield, UK) diluted 1:500 in 1% BSA/wash buffer) was added and incubated at 30 °C for 30 min. After a further five washes, DELFIA enhancement solution (PerkinElmer, Beaconsfield UK) was added and allowed to incubate for 10 min at room temperature, protected from light, to facilitate the chemifluorescent detection. The relative fluorescence units (RFU) signal were measured on a Wallac Victor 1420 multilabel counter (PerkinElmer, Beaconsfield, UK) in time-resolved fluorescence mode. The counter was set at an excitation wavelength of 340 nm with a 400 μs delay before detecting emitted light at 615 nm. The apparent Ki of the phosphorylated substrate was calculated for each compound using the Cheng–Prusoff equation.

[1] = apparent Ki (Cheng–Prusoff), 40 μM ATP, three independent experiments, read-out: IKKβ (Ki ± SEM μM)

| Molecule | IKKα inhibitory activity (IKKα) | also measured |
| --- | --- | --- |
| N#Cc1c[nH]c2nc(N)nc(N[C@@H]3CC[C@@H](O)[C@H]3O)c12 (relative stereo) [Compound 30, 2-Amino-4-((1RS,2SR,3RS)-2,3-dihydroxycyclopentylamino)-7H-pyrrolo[2,3-d]pyrimidine-5-carbonitrile] | active and selective |  |
| 4-((2-Amino-5-cyano-7H-pyrrolo[2,3-d]pyrimidin-4-yl)amino)benzoic acid [Compound 12] |  | Ki (IKKα): > 30 µM; Ki (IKKβ; [1]): > 30 µM |
| Nc1nc(NC2CCCCC2)c2c(C(F)(F)F)c[nH]c2n1 [Compound 70, N^4-Cyclohexyl-5-(trifluoromethyl)-7H-pyrrolo[2,3-d]pyrimidine-2,4-diamine] | attenuated all IKKα inhibitory activity |  |
| 2-Amino-4-(cyclohexylmethylamino)-7H-pyrrolo[2,3-d]pyrimidine-5-carbonitrile [Compound 10] |  | Ki (IKKα): > 30 µM; Ki (IKKβ; [1]): > 30 µM |
| Nc1nc(Cl)c2cc[nH]c2n1 [Compound 63] | inactive |  |
| Nc1nc(-c2ccc(S(N)(=O)=O)cc2)c2cc[nH]c2n1 [Compound 64, 4-(2-Amino-7H-pyrrol[2,3-d]pyrimidin-4-yl)benzenesulfonamide] |  | reduction of activity against IKKα (IKKα; relative to 48 (absence of 5-cyano group)): more than 30 fold |
| N#Cc1c[nH]c2nc(N)nc(N3CC[C@@H](O)C3)c12 [Compound 24, (R)-2-Amino-4-(3-hydroxypyrrolidin-1-yl)-7H-pyrrolo[2,3-d]pyrimidine-5-carbonitrile] | inactive |  |
| N#Cc1c[nH]c2nc(N)nc(NCc3ccccc3)c12 [Compound 14, 2-Amino-4-(benzylamino)-7H-pyrrolo[2,3-d]pyrimidine-5-carbonitrile] |  | Ki (IKKβ; supplementary CSV, read-out: IKKbeta Ki (?M)): 19 µM |
| 2-Amino-4-(3-hydroxypropylamino)-7H-pyrrolo[2,3-d]pyrimidine-5-carbonitrile [Compound 23] |  | Ki (IKKα): 12.1 ± 6.3 µM; Ki (IKKβ; [1]): > 30 µM |
| N#Cc1c[nH]c2nc(N)nc(N3CCCCC3)c12 [Compound 17, 2-Amino-4-(piperidin-1-yl)-7H-pyrrolo[2,3-d]pyrimidine-5-carbonitrile] | active |  |
| N#Cc1c[nH]c2nc(N)nc(N3CCC(O)C3)c12 (stereo in doubt) [Compound 25, (R)-2-Amino-4-(3-hydroxypyrrolidin-1-yl)-7H-pyrrolo[2,3-d]pyrimidine-5-carbonitrile] | active and selective against IKKα |  |
| N#Cc1c[nH]c2nc(N)nc(NC3CCCCC3)c12 [Compound 9, 2-Amino-4-(cyclohexylamino)-7H-pyrrolo[2,3-d]pyrimidine-5-carbonitrile] |  | increase in potency against IKKα (IKKα; from methylamine analogue 7 to cyclohexylamine derivative 9): 5 fold |
| N#Cc1c[nH]c2nc(N)nc(N(CCO)C3CCCCC3)c12 [Compound 29, 2-Amino-4-(cyclohexyl(2-hydroxyethyl)amino)-7H-pyrrolo[2,3-d]pyrimidine-5-carbonitrile] | inactive |  |
| NC(=O)c1c[nH]c2nc(N)nc(N[C@H]3CC[C@H](O)CC3)c12 [Compound 71, 2-Amino-4-((1R,4R)-4-hydroxycyclohexylamino)-7H-pyrrolo[2,3-d]pyrimidine-5-carboxamide] | attenuated all IKKα inhibitory activity |  |
| N#Cc1c[nH]c2nc(N)nc(-c3cccc(C(N)=O)c3)c12 [Compound 55, 3-(2-Amino-5-cyano-7H-pyrrolo[2,3-d]pyrimdin-4-yl)benzamide] | inactive | IKKβ inhibitory activity (IKKβ; SAR discussion): inactive |
| N#Cc1c[nH]c2nc(N)nc(N[C@H]3CC[C@H](O)CC3)c12 [Compound 28, 2-Amino-4-((1R,4R)-4-hydroxycyclohexylamino)-7H-pyrrolo[2,3-d]pyrimidine-5-carbonitrile] | active and selective against IKKα |  |
| N#Cc1c[nH]c2nc(N)nc(N3CCC(S(N)(=O)=O)CC3)c12 [Compound 18, 1-(2-Amino-5-cyano-7H-pyrrolo[2,3-d]pyrimidin-4-yl)piperidine-4-sulfonamide] | active |  |
